Results reported in ChEMBL document CHEMBL5523732, “Structure-Guided Design of Potent Coronavirus Inhibitors with a 2-Pyrrolidone Scaffold: Biochemical, Crystallographic, and Virological Studies” (J Med Chem, 2024).

Key:
[1] = tested on: SARS-CoV-2; assay: Antiviral activity against SARS CoV-2 Wuhan-Hu-1 infected in HEK293T cells incubated for 24 hrs; assay type: functional, organism-based; conditions: Severe acute respiratory syndrome coronavirus 2, Wuhan-Hu-1, HEK-293T
[2] = Cytotoxicity against cat CRFK cells incubated for 72 hrs by CytoTox 96 analysis; assay type: toxicity, cell-based, Felis catus
[3] = target: Replicase polyprotein 1ab (Severe acute respiratory syndrome coronavirus 2, UniProt P0DTD1); assay: Inhibition of full length N-terminal his6-tagged SARS-CoV-2 3CL protease using FAM-SAVLQ as substrate preincubated with compound for 30 mins followed by substrate addition and measured after 30 mins by FRET assay
[4] = Inhibition of MERS-CoV 3CLpro using SG-QXL520 as substrate preincubated with compound for 30 mins followed by susbtrate addition and measured after 30 mins by FRET assay; set-up: species or system Middle East respiratory syndrome-related coronavirus

Row | Compound | EC50 [1] [nM] | CC50 at 72 h [2] [nM] | IC50 [3] [nM] | IC50 [4] [nM]
1 | CC(C)C[C@H](NC(=O)OC[C@@H]1CCC(=O)N1Cc1cccc(Cl)c1)C(=O)N[C@H](C=O)C[C@@H]1CCNC1=O | 110 | > 50000 | 110 | 17
2 | CC(C)C[C@H](NC(=O)OC[C@@H]1CCC(=O)N1CC1CCCCC1)C(=O)N[C@H](C=O)C[C@@H]1CCNC1=O | 750 | > 50000 | 250 | 50
3 | CC(C)C[C@H](NC(=O)OC[C@@H]1CCC(=O)N1CC1CCCCC1)C(=O)N[C@@H](C[C@@H]1CCNC1=O)C(O)S(=O)(=O)O (some centres undefined) | 790 | > 50000 | 280 | 60
4 | CC(C)C[C@H](NC(=O)OCC1CC(=O)N(CC2CCCCC2)C1)C(=O)N[C@@H](C[C@@H]1CCNC1=O)C(O)S(=O)(=O)O (some centres undefined) | 150 | > 50000 | 370 | 50
5 | CC(C)C[C@H](NC(=O)OCC1CC(=O)N(CC2CC3C=CC2C3)C1)C(=O)N[C@@H](C[C@@H]1CCNC1=O)C(O)S(=O)(=O)O (some centres undefined) | 350 | > 50000 | 190 | 80
6 | CC(C)C[C@H](NC(=O)OCC1CC(=O)N(CC2CC3CCC2C3)C1)C(=O)N[C@H](C=O)C[C@@H]1CCNC1=O (some centres undefined) | 120 | > 50000 | 160 | 60
7 | CC(C)C[C@H](NC(=O)OC[C@@H]1CCC(=O)N1Cc1ccc2c(c1)OC(F)(F)O2)C(=O)N[C@@H](C[C@@H]1CCNC1=O)C(O)S(=O)(=O)O (some centres undefined) | 450 | > 50000 | 320 | 50
8 | CC(C)C[C@H](NC(=O)OC[C@@H]1CCC(=O)N1Cc1cccc(C(F)(F)F)c1)C(=O)N[C@@H](C[C@@H]1CCNC1=O)C(O)S(=O)(=O)O (some centres undefined) | 490 | > 50000 | 770 | 50
9 | CC(C)C[C@H](NC(=O)OC[C@@H]1CCC(=O)N1Cc1cccc(C(F)(F)F)c1)C(=O)N[C@H](C=O)C[C@@H]1CCNC1=O | 560 | > 50000 | 740 | 50
10 | CC(C)C[C@H](NC(=O)OCC1CCN(CC2CCCCC2)C1=O)C(=O)N[C@@H](C[C@@H]1CCNC1=O)C(O)S(=O)(=O)O (some centres undefined) | 20 | > 50000 | 220 | 170
11 | CC(C)C[C@H](NC(=O)OC[C@@H]1CCC(=O)N1Cc1cccc(F)c1)C(=O)N[C@@H](C[C@@H]1CCNC1=O)C(O)S(=O)(=O)O (some centres undefined) | 40 | > 50000 | 160 | 240
12 | CC(C)C[C@H](NC(=O)OC[C@@H]1CCC(=O)N1Cc1ccc2c(c1)OC(F)(F)O2)C(=O)N[C@H](C=O)C[C@@H]1CCNC1=O | 510 | > 50000 | 270 | 50
13 | CC(C)C[C@H](NC(=O)OCC1CC(=O)N(CC2CCCCC2)C1)C(=O)N[C@H](C=O)C[C@@H]1CCNC1=O (some centres undefined) | 130 | > 50000 | 310 | 50
14 | CC(C)C[C@H](NC(=O)OC[C@@H]1CCC(=O)N1Cc1cccc(Cl)c1)C(=O)N[C@@H](C[C@@H]1CCNC1=O)C(O)S(=O)(=O)O (some centres undefined) | 120 | > 50000 | 100 | 18
15 | CC(C)C[C@H](NC(=O)OCC1CC(=O)N(CC2CC3CCC2C3)C1)C(=O)N[C@@H](C[C@@H]1CCNC1=O)C(O)S(=O)(=O)O (some centres undefined) | 80 | > 50000 | 170 | 70
16 | CC(C)C[C@H](NC(=O)OCC1CCN(CC2CCCCC2)C1=O)C(=O)N[C@H](C=O)C[C@@H]1CCNC1=O (some centres undefined) | 20 | > 50000 | 230 | 310
